These results are taken from paper PMC12169847, “Targeted protein degradation by KLHDC2 ligands identified by high-throughput screening” (eLife, 2025).

Several values for one entry are separate records, joined by “and”; a condition that tells them apart may be missing. Equal values may be shown once.

The target of assay [1] is KLHDC2. The arrangement: method as in Rusnac et al., 2018. To be noted: ref Rusnac et al., 2018; read-out: dissociation constant, reported literature value; cited from earlier work.
For another assay, the target named is SelK (Homo sapiens) (UniProt Q9Y6D0). Particulars: cited from earlier work.
Sequence of SelK (Homo sapiens) (Q9Y6D0 2-94): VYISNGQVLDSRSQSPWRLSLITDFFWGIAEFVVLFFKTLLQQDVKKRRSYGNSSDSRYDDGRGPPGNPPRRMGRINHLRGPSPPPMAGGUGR
The target in another assay is T1, KEAP1 Kelch domain (Homo sapiens, UniProt Q14145).
T1 construct: HIS6 (N); made in house; host or cells: Escherichia coli BL21(DE3)
T1 sequence (Q14145 321-609 limits assumed): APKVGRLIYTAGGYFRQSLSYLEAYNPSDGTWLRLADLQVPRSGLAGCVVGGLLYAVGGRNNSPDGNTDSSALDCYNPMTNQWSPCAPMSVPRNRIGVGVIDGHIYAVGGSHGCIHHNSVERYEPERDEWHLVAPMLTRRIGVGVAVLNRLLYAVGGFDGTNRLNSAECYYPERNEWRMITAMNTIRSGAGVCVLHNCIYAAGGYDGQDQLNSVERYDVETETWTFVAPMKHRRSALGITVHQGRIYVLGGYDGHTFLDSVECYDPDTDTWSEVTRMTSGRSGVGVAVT
Description: Fluorescence polarization counter-screen, KEAP1 with TAMRA-NRF2 peptide. The format is binding. To be noted: for Fluorescence polarization signal: KEAP1, replicate wells.

In the next assay the target is T2, GST-tagged KLHDC2 (Homo sapiens, UniProt Q9Y2U9).
T2 sequence (Q9Y2U9 1-362): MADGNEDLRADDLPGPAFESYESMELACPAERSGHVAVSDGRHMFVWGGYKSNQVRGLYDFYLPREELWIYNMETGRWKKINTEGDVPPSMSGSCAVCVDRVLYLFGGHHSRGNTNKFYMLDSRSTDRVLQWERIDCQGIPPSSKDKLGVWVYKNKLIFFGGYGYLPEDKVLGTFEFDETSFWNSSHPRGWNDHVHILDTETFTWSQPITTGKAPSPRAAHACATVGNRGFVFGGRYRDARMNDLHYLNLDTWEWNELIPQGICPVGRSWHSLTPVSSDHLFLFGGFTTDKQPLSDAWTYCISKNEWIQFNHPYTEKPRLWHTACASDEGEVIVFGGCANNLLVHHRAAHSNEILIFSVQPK
As to the kind of experiment: Fluorescence polarization competition assay, KLHDC2 with TAMRA-SelK peptide (384-well). Particulars: for Fluorescence polarization signal: KLHDC2, replicate wells.

Assay [2] deals with T3, KLHDC2 (Homo sapiens, UniProt Q9Y2U9).
T3 sequence (Q9Y2U9 1-362): T2 sequence (Q9Y2U9 1-362)
Description: Surface plasmon resonance direct binding to immobilized KLHDC2. To be noted: read-out: KLHDC2 Kd (SPR).

Sequence of KLHDC2 (from UniProt Q9Y2U9) (Q9Y2U9 whole entry): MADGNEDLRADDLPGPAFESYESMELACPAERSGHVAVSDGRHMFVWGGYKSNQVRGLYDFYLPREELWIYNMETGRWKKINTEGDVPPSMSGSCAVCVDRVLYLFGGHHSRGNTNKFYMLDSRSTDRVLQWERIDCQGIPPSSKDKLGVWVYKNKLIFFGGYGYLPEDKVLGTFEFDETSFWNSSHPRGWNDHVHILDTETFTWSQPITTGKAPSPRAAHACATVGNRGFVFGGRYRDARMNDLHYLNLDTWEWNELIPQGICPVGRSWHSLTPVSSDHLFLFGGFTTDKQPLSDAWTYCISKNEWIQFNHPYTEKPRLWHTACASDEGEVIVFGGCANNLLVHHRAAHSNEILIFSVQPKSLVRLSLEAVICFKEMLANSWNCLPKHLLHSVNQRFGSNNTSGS

Consider “SelK: client protein of KLHDC2 with C-terminal diglycine degron”, for which the Kd at KLHDC2 [1] was less than 10 nM.
As to KLHDC2 (from UniProt Q9Y2U9), the Kd with SelK (Homo sapiens) is 3.4 nM.
Turning to `Cc1ccc(C)c(C2Nc3c(C(=O)O)cc(Cl)cc3C3C4CCC(C4)C23)c1` (centres unmarked) [compound 2], the Fluorescence polarization signal at KEAP1 Kelch domain (0.169351 nM) is 14.7 and 20.2 and 14.4; on KEAP1 Kelch domain (0.508053 nM), 10.4 and 15.1 and 11.1; on KEAP1 Kelch domain (1.52416 nM) it was 17 and 19.8 and 20.3; at KEAP1 Kelch domain (4.57247 nM) it was 20.3 and 18.2 and 19.6; at KEAP1 Kelch domain (13.7174 nM), 18.8 and 19.1 and 18; at KEAP1 Kelch domain (41.1523 nM) it was 21.6 and 19.5 and 32. For the same molecule, the Fluorescence polarization signal is 24.5 and 18.9 and 12.1 at KEAP1 Kelch domain (123.457 nM); 22.6 and 16.2 and 24.9 at KEAP1 Kelch domain (370.37 nM); 20.2 and 15.6 and 21 at KEAP1 Kelch domain (1111.11 nM); 14.8 and 21.8 and 27 on KEAP1 Kelch domain (3333.33 nM); 17.3 and 22.1 and 15.2 on KEAP1 Kelch domain (10000 nM); -6.704 and 3.427 and -1.254 on GST-tagged KLHDC2 (0.169351 nM). The Fluorescence polarization signal is -10.2042 and 5.927 and -5.854 on GST-tagged KLHDC2 (0.508053 nM); -0.3042 and -6.173 and -5.554 at GST-tagged KLHDC2 (1.52416 nM); 3.896 and 7.124 and -7.354 at GST-tagged KLHDC2 (4.57247 nM); 2.496 and 7.927 and -2.554 on GST-tagged KLHDC2 (13.7174 nM); 1.996 and 10.1266 and 8.192 at GST-tagged KLHDC2 (41.1523 nM); -3.304 and -7.673 and -6.554 on GST-tagged KLHDC2 (123.457 nM). Also, the Fluorescence polarization signal on GST-tagged KLHDC2 (370.37 nM) is -2.804 and -8.673 and -1.254; on GST-tagged KLHDC2 (1111.11 nM) it was -10.1042 and -12.1734 and -2.854; on GST-tagged KLHDC2 (3333.33 nM) it was -28.2042 and -24.2734 and -28.2543; on GST-tagged KLHDC2 (10000 nM), -26.0042 and -23.7734 and -24.4543. Also, on KEAP1 Kelch domain (concentrations less than 20 µM), the “inhibitory effect in the KEAP1 counter-screening assay” value is “did not have an inhibitory effect”. Besides, the EC50 was more than 20000 nM on KEAP1 Kelch domain (in figure) and 1270 nM on GST-tagged KLHDC2. The molecule further had an IC50 at GST-tagged KLHDC2 of 1300 nM. For the same molecule, the Kd on KLHDC2 [2] is 440 nM and 443 nM.
